The values below come from patent US6958231B2, “Variants of Erwinia-type creatinase” (Roche Diagnostics Operations, Inc., priority 2001, dated 2005).

Changes are numbered by the printed parent chain.

Assay [1] has as its target T1, Erwinia sp. (DSM 97-934) creatinase variant CTsd2, N130D, M203V, I278T, F395L, SEQ ID NO: 20 (Shinella sumterensis, UniProt A0AA50CTE0, F395L/I278T/M203V/N130D).
T1 construct: variant CTsd2
T1 sequence (A0AA50CTE0 1-404 N130D/M203V/I278T/F395L): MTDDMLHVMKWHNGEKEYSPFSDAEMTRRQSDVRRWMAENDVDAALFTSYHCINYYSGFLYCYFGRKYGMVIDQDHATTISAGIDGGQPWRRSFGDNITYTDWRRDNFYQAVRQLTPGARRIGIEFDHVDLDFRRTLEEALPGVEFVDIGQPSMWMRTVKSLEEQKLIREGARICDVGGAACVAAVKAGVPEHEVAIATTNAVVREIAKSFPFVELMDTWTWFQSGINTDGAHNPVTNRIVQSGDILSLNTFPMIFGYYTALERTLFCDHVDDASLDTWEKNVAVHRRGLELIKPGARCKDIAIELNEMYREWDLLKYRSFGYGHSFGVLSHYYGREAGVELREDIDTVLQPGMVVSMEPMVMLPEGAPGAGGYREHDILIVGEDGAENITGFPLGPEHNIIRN
Kind of assay: Km determination of creatinase variant with creatine (coupled enzymatic assay). Type of assay: biochemical. To be noted: in words, CTsd2 vs wild type Erwinia creatinase. The procedure: (§1) The activity assay for creatinase and its variants was performed by using creatine as substrate and a coupled enzymatic reaction according to Guder, W. G., et al., J Clin Chem Clin Biochem 24 (1986) 889-902.
(§2) The reaction mixture was set up by combining the following reagents:
(§3) The assay for creatinase was carried out at 25° C. and at the wavelength of 546 nm for 10 min. ΔE was calculated from the measurement points of 6 to 10 min.
(§4) For KM determination, creatinase activity was determined according to the assay procedure described in Example 3 using six different concentrations of creatine substrate: 90 mM, 45 mM, 22.5 mM, 11.3 mM, 5.6 miM and 2.8 mM.

Assay [2] has as its target T2, Erwinia sp. (DSM 97-934) creatinase variant CTsd7, F59W, N130D, M203V, I278T, F395L, SEQ ID NO: 22 (Shinella sumterensis, UniProt A0AA50CTE0, F395L/F59W/I278T/M203V/N130D).
T2 construct: variant CTsd7
T2 sequence (A0AA50CTE0 1-404 F59W/N130D/M203V/I278T/F395L): T1 sequence (A0AA50CTE0 1-404 N130D/M203V/I278T/F395L) with F59W
The description is as above. Type of assay: biochemical. The following applies: in words, CTsd7 vs wild type Erwinia creatinase. The method, then: as §1, §2, §3, §4

Assay [3] relates to creatinase from Pseudomonas putida. The following applies: in words; cited from earlier work.

For `CN(CC(=O)O)C(=N)N` [creatine], the “Km value compared to wild type” value in assay [1] and in assay [2] was “much lower” in each case. Also, in assay [3], the Km value entry was “rather high”.
